In brackets after ≈: the same amount, converted by molar mass. *1 amine or outer side, *2 acyl side, *3 side chain or, on linkers, in order; H or OH if unused. Where a SMILES comes first, the peptide text is derived from it. [ ]: non-standard residue; d: D form. The star is where a group is joined. X13 = C[C@H](CO[C@H](CC1CC2(CCC2)C1)[C@@H](C)C(=O)[*:2])N[*:1]; X2 = CCCCCC[C@@H](OC[C@@H](C)N[*:1])[C@@H](C)C(=O)[*:2]; Gly(cHept) = N[C@H](C(=O)O)C1CCCCCC1; Propyl(3-guanidino) = N=C(N)NCCC*; NMeL = CN[C@@H](CC(C)C)C(=O)O; Chg = N[C@H](C(=O)O)C1CCCCC1; NMeNva = CCC[C@H](NC)C(=O)O; Dap = NC[C@H](N)C(=O)O; Propyl(3-NH2) = NCCC*; X10 = NCCCC*
system: Escherichia coli (E. coli) strain CFT073 ATCC 700928; type: cell-based; conditions: ATCC 700928, 22 h
Procedure, shortened: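 Broth microdilution MIC per CLSI M07-A8 in cation-adjusted Mueller Hinton II broth with 0.002% Tween-80. Ten-point 2-fold series topped at 64, 4, 0.5 or 0.13 μg/mL depending on protocol. Final inoculum OD600 0.0005, incubated 22 h at 35 °C.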

| SMILES | MIC |
| --- | --- |
| CCCCCC[C@H]1OC(=O)CNC(=O)[C@H]([C@H](C)O)NC(=O)[C@H](CN)NC(=O)[C@H](C2CC3(CCC3)C2)NC(=O)[C@H](CC(C)C)N(C)C(=O)[C@@H]1C [Example 55, (6S,9S,12S,15S,18R,19R)-9-(aminomethyl)-19-hexyl-6-((S)-1-hydroxyethyl)-15-isobutyl-16,18-dimethyl-12-(spiro[3.3]heptan-2-yl)-1-oxa-4,7,10,13,16-pentaazacyclononadecane-2,5,8,11,14,17-hexaone] | 18 µM (≈ 12.5 µg/mL) |
| CCC[C@H]1C(=O)N[C@@H](C2CCCCCC2)C(=O)N[C@@H](CN)C(=O)N[C@@H]([C@H](C)O)C(=O)NCC(=O)O[C@H](C[C@@H]2C[C@@H]3CC[C@@H](C3)C2)[C@@H](C)C(=O)N1C [Example 83, (6S,9S,12S,15S,18R,19R)-9-(Aminomethyl)-19-(((1R,3s,5S)-bicyclo[3.2.1]octan-3-yl)methyl)-12-cycloheptyl-6-((S)-1-hydroxyethyl)-16,18-dimethyl-15-propyl-1-oxa-4,7,10,13,16-pentaazacyclononadecane-2,5,8,11,14,17-hexaone] | 0.39 µM (≈ 0.28 µg/mL) |
| CCCCCCCCCC[C@H]1OC(=O)CNC(=O)[C@H]([C@H](C)O)NC(=O)[C@H](CN)NC(=O)[C@H]([C@H](C)CC)NC(=O)[C@H](CC2CCC2)N(C)C(=O)[C@@H]1C [Example 16, (6S,9S,12S,15S,18R,19R)-9-(aminomethyl)-15-(cyclobutylmethyl)-19-decyl-6-[(1S)-1-hydroxyethyl]-16,18-dimethyl-12-[(1R)-1-methylpropyl]-1-oxa-4,7,10,13,16-pentazacyclononadecane-2,5,8,11,14,17-hexone] | 6.3 µM (≈ 4.55 µg/mL) |
| CCC[C@H]1C(=O)N[C@@H](C2CCCCCC2)C(=O)N[C@@H](CN)C(=O)N[C@@H](COCCCN)C(=O)N[C@H](C)CO[C@H](CC2CC3(CCC3)C2)[C@@H](C)C(=O)N1C [Example 159, (3R,6S,9S,12S,15S,18R,19R)-9-(Aminomethyl)-6-((3-aminopropoxy)methyl)-12-cycloheptyl-3,16,18-trimethyl-15-propyl-19-(spiro[3.3]heptan-2-ylmethyl)-1-oxa-4,7,10,13,16-pentaazacyclononadecane-5,8,11,14,17-pentaone] (cyclo([Dap]S(Propyl(3-NH2))[X13][NMeNva][Gly(cHept)])) | 3.1 µM (≈ 2.32 µg/mL) |
| CCCCCC[C@H]1OC(=O)CNC(=O)[C@H](C2CCC2)NC(=O)[C@H](CN)NC(=O)[C@H](C2CCCCC2)NC(=O)[C@H](CC(C)C)N(C)C(=O)[C@@H]1C [Example 162, (6S,9S,12S,15S,18R,19R)-9-(Aminomethyl)-6-cyclobutyl-12-cyclohexyl-19-hexyl-15-isobutyl-16,18-dimethyl-1-oxa-4,7,10,13,16-pentaazacyclononadecane-2,5,8,11,14,17-hexaone] | 3.1 µM (≈ 2.14 µg/mL) |
| CCCCCC[C@H]1OC[C@@H](C)NC(=O)[C@H](COCCCCN)NC(=O)[C@H](CN)NC(=O)[C@H](C2CCCCC2)NC(=O)[C@H](CC(C)C)N(C)C(=O)[C@@H]1C [Example 73, (3R,6S,9S,12S,15S,18R,19R)-6-((4-Aminobutoxy)methyl)-9-(aminomethyl)-12-cyclohexyl-19-hexyl-15-isobutyl-3,16,18-trimethyl-1-oxa-4,7,10,13,16-pentaazacyclononadecane-5,8,11,14,17-pentaone] (cyclo([Chg][Dap]S(X10)[X2][NMeL])) | 6.3 µM (≈ 4.65 µg/mL) |
| CCCCCC[C@H]1OC(=O)CNC(=O)[C@H]([C@H](C)O)NC(=O)[C@H](CN)NC(=O)[C@H](C2CCCCC2)NC(=O)[C@H](CC(C)C)N(C)C(=O)[C@@H]1Cc1ccccc1C [Example 120, (6S,9S,12S,15S,18R,19R)-9-(aminomethyl)-12-cyclohexyl-19-hexyl-15-isobutyl-16-methyl-18-(o-tolylinethyl)-6-[(1S)-1-hydroxyethyl]-1-oxa-4,7,10,13,16-pentazacyclononadecane-2,5,8,11,14,17-hexone] | 3.1 µM (≈ 2.39 µg/mL) |
| CC[C@@H](C)[C@@H]1NC(=O)[C@H](CC(C)C)N(C)C(=O)[C@H](C)[C@@H](CCCCCC(F)(F)F)OC(=O)CNC(=O)[C@H]([C@H](C)O)NC(=O)[C@H](CN)NC1=O [Example 107, (6S,9S,12S,15S,18R,19R)-9-(aminomethyl)-15-isobutyl-16,18-dimethyl-6-[(1S)-1-hydroxyethyl]-12-[(1R)-1-methylpropyl]-19-(6,6,6-trifluorohexyl)-1-oxa-4,7,10,13,16-pentazacyclononadecane-2,5,8,11,14,17-hexone] | 25 µM (≈ 17.7 µg/mL) |
| CCCCCCC1OC(=O)CNC(=O)[C@H]([C@H](C)O)NC(=O)[C@H](CN)NC(=O)[C@H]([C@H](C)CC)NC(=O)[C@H](CC(C)C)N(C)C(=O)C1(F)F (stereo partly drawn) [Example 61, (6S,9S,12S,15S)-9-(Aminomethyl)-12-((R)-sec-butyl)-18,18-difluoro-19-hexyl-6-((S)-1-hydroxyethyl)-15-isobutyl-16-methyl-1-oxa-4,7,10,13,16-pentaazacyclononadecane-2,5,8,11,14,17-hexaone] | 6.3 µM (≈ 4.26 µg/mL) |
| Cc1ccc(C[C@H]2C(=O)N(C)[C@@H](CC(C)C)C(=O)N[C@@H](C3CCCCC3)C(=O)N[C@@H](CN)C(=O)N[C@@H]([C@H](C)O)C(=O)NCC(=O)O[C@@H]2CCC(F)(F)F)cc1 [Example 112, (6S,9S,12S,15S,18R,19R)-9-(aminomethyl)-12-cyclohexyl-15-isobutyl-16-methyl-18-(p-tolylmethyl)-6-[(1S)-1-hydroxyethyl]-19-(3,3,3-trifluoropropyl)-1-oxa-4,7,10,13,16-pentazacyclononadecane-2,5,8,11,14,17-hexone] | 71 µM (≈ 55.6 µg/mL) |
| CCCCCCCCCC[C@H]1OC(=O)CNC(=O)[C@H]([C@H](C)O)NC(=O)[C@H](CNC(=N)N)NC(=O)[C@H]([C@@H](C)CC)NC(=O)[C@H](CC(C)C)N(C)C(=O)[C@@H]1C [Example 26, 1-[[(6S,9S,12S,15S,18R,19R)-19-decyl-6-[(1S)-1-hydroxyethyl]-15-isobutyl-16,18-dimethyl-12-[(1S)-1-methylpropyl]-2,5,8,11,14,17-hexaoxo-1-oxa-4,7,10,13,16-pentazacyclononadec-9-yl]methyl]guanidine] | 50 µM (≈ 37.6 µg/mL) |
| CCCCCC[C@H]1OC(=O)CNC(=O)[C@H]([C@H](C)O)NC(=O)[C@H](CN)NC(=O)[C@H](CC(C)C)NC(=O)[C@H](CC(C)C)N(C)C(=O)[C@@H]1C [Example 90, (6S,9S,12S,15S,18R,19R)-9-(aminomethyl)-19-hexyl-12,15-diisobutyl-16,18-dimethyl-6-[(1S)-1-hydroxyethyl]-1-oxa-4,7,10,13,16-pentazacyclononadecane-2,5,8,11,14,17-hexone] | 21 µM (≈ 13.8 µg/mL) |
| CCC(F)CCC[C@H]1OC(=O)CNC(=O)[C@H]([C@H](C)O)NC(=O)[C@H](CN)NC(=O)[C@H]([C@H](C)CC)NC(=O)[C@H](CC(C)C)N(C)C(=O)[C@@H]1C (stereo partly drawn) [Example 122, (6S,9S,12S,15S,18R,19R)-9-(aminomethyl)-19-(4-fluorohexyl)-15-isobutyl-16,18-dimethyl-6-[(1S)-1-hydroxyethyl]-12-[(1R)-1-methylpropyl]-1-oxa-4,7,10,13,16-pentazacyclononadecane-2,5,8,11,14,17-hexone] | 25 µM (≈ 16.8 µg/mL) |
| CCCCCCCCCC[C@H]1OC(=O)CNC(=O)[C@H](CO)NC(=O)[C@H](CO)NC(=O)[C@H](C(C)C)NC(=O)[C@H](CC(C)C)N(C)C(=O)[C@@H]1C [Example 39, (6S,9S,12S,15S,18R,19R)-19-decyl-6,9-bis(hydroxymethyl)-15-isobutyl-12-isopropyl-16,18-dimethyl-1-oxa-4,7,10,13,16-pentazacyclononadecane-2,5,8,11,14,17-hexone] | 25 µM (≈ 17.1 µg/mL) |
| CCCCCCCCCC[C@H]1OC(=O)CNC(=O)[C@H]([C@H](C)O)NC(=O)[C@H](CO)NC(=O)[C@H]([C@@H](C)CC)NC(=O)[C@H](CCC)N(C)C(=O)[C@@H]1C [Example 32, (6S,9S,12S,15S,18R,19R)-19-decyl-6-[(1S)-1-hydroxyethyl]-9-(hydroxymethyl)-16,18-dimethyl-12-[(1S)-1-methylpropyl]-15-propyl-1-oxa-4,7,10,13,16-pentazacyclononadecane-2,5,8,11,14,17-hexone] | 9.4 µM (≈ 6.56 µg/mL) |
| CCCCCCCCCC[C@H]1OC(=O)CNC(=O)[C@H](C)NC(=O)[C@H](CO)NC(=O)[C@H]([C@@H](C)CC)NC(=O)[C@H](CC(C)C)N(C)C(=O)[C@@H]1C [Example 30, (6S,9S,12S,15S,18R,19R)-19-decyl-9-(hydroxymethyl)-15-isobutyl-6,16,18-trimethyl-12-[(1S)-1-methylpropyl]-1-oxa-4,7,10,13,16-pentazacyclononadecane-2,5,8,11,14,17-hexone] | 13 µM (≈ 8.86 µg/mL) |
| CCCCCCCCCC[C@H]1OC(=O)CNC(=O)[C@H](CO)NC(=O)[C@H](CO)NC(=O)[C@H]([C@@H](C)CC)NC(=O)[C@H](CCCC)N(C)C(=O)[C@@H]1C [Example 31, (6S,9S,12S,15S,18R,19R)-15-butyl-19-decyl-6,9-bis(hydroxymethyl)-16,18-dimethyl-12-[(1S)-1-methylpropyl]-1-oxa-4,7,10,13,16-pentazacyclononadecane-2,5,8,11,14,17-hexone] | 13 µM (≈ 9.07 µg/mL) |
| CCCCCC[C@H]1OC[C@@H](C)NC(=O)[C@H](COCCCNC(=N)N)NC(=O)[C@H](CN)NC(=O)[C@H](C2CCCCC2)NC(=O)[C@H](CC(C)C)N(C)C(=O)[C@@H]1C [Example 82, 1-(3-(((3R,6S,9S,12S,15S,18R,19R)-9-(Aminomethyl)-12-cyclohexyl-19-hexyl-15-isobutyl-3,16,18-trimethyl-5,8,11,14,17-pentaoxo-1-oxa-4,7,10,13,16-pentaazacyclononadecan-6-yl)methoxy)propyl)guanidine] (cyclo([Chg][Dap]S(Propyl(3-guanidino))[X2][NMeL])) | 4.4 µM (≈ 3.37 µg/mL) |
| CCCCCCCCCC[C@H]1OC(=O)CNC(=O)[C@H](CNC(N)=O)NC(=O)[C@H](CO)NC(=O)[C@H]([C@@H](C)CC)NC(=O)[C@H](CC(C)C)N(C)C(=O)[C@@H]1C [Example 37, [(6S,9S,12S,15S,18R,19R)-19-decyl-9-(hydroxymethyl)-15-isobutyl-16,18-dimethyl-12-[(1S)-1-methylpropyl]-2,5,8,11,14,17-hexaoxo-1-oxa-4,7,10,13,16-pentazacyclononadec-6-yl]methylurea] | 25 µM (≈ 18.5 µg/mL) |

Source: patent publication US11279735B2, “Cyclic peptide antibiotics” (priority 2017, dated 2022)
